Test results taken from article PMC3167814, “Relationships between Membrane Binding, Affinity and Cell Internalization Efficacy of a Cell-Penetrating Peptide: Penetratin as a Case Study” (PLoS ONE, 2011).

Columns and labels:
[1] = tested on: GAG-deficient CHO-pgsA745 cells (GAG^neg)
Description: (§1) As already reported, the quantity or concentration of internalized and membrane-bound penetratin could be differentiated and measured by MALDI mass spectrometry, [33], [34]. […] Using the reported protocol, the amount of internalized penetratin was quantified in one million cells that were incubated with 1 or 10 µM penetratin for one hour. After washing steps, the extracellular membrane-bound peptide was degraded by trypsin digestion, [33], [34] so that only the internalized peptide was quantified. […] The extracellular concentration could not be lowered further because of the lack of sensitivity of the MALDI-MS method for accurate measurements of sub-picomole quantities of penetratin.
(§2) Wild type Chinese Hamster Ovary CHO-K1 cells (WT), xylosetransferase- or GAG-deficient CHO-pgsA745 [59] cells (GAG^neg) and sialic acid deficient CHO-lec2 [60] cells (SA^neg) were cultured in Dulbecco's modified Eagle's medium (DMEM) supplemented with 10% fetal calf serum (FCS), penicillin (100,000 IU/L), streptomycin (100,000 IU/L), and amphotericin B (1 mg/L) in a humidified atmosphere containing 5% CO2 at 37°C.
(§3) Cellular uptake was quantified using the method described by Burlina et al.. In this protocol, the studied peptide bears a tag composed of four glycine residues together with a biotin moiety for purification purposes. After one-hour incubation with the peptide and washing, a protease is added (0.05% trypsin in Tris-HCl 100 mM pH 7.5) in order to detach the cells and to degrade the membrane-bound peptide. This avoids overestimating the quantity of internalized peptide due to the presence of peptides attached to the outer leaflet of the membrane. The cells are then lysed (0.3% Triton) and boiled, and the cell lysate is incubated with streptavidin-coated magnetic beads to extract the peptide from the lysate. For membrane-bound peptide quantification, washings but no protease digestion was done and the cells were directly lysed. The peptides are eluted from the streptavidin-coated magnetic beads with a α-cyano-4-hydroxycinnamic acid matrix and spotted on the MALDI plate. Mass spectrometry is not a quantitative method per se, therefore an internal standard is added to the lysis solution. […] This allows the absolute quantification of internalized and membrane-bound peptide. […] The experiments were repeated at least three times independently.

[2] = tested on: Wild type Chinese Hamster Ovary CHO-K1 cells (WT)
Description: as §1, §2, §3

[3] = tested on: sialic acid deficient CHO-lec2 cells (SA^neg)
Description: as §1, §2, §3

[4] = tested on: GAG^neg cell membrane fragments; experiment: PWR, lipid bilayer composed of cell membrane fragments; type: binding, Chinese Hamster; conditions: GAG^neg membrane fragments in egg PC planar bilayer; PWR shifts on incremental peptide addition, hyperbolic fit, apparent Kd; repeated 3 times
Description: (§4) Homogenized membranes were obtained by osmotic and mechanical disruption of cells. A method to deposit cell membrane fragments on the PWR cell sample was developed as follows. The deposition of a membrane composed of cell membrane fragments into the PWR resonator led to spectral changes, namely large positive spectral shifts for both p- and s-polarizations relative to the buffer spectrum (Figure 2, panels A and B) indicating the immobilization of a significant amount of mass on the sensor surface. It should be noted that the shifts obtained for p-pol were considerably larger than the ones obtained for s-pol (s/p ratio about 0.7).
(§5) Regarding the direction of the PWR spectral shifts, two types of behavior were observed depending on the membrane composition: 1) in the case of GAG^neg cells, penetratin led to a two phase binding process with negative shifts followed by positive shifts (for both polarizations) which equilibrated after certain concentrations; 2) in the case of WT and SA^neg cells, penetratin led to a single binding process with positive shifts for both polarizations (see panels C and D in Figure 2 for penetratin interaction with WT cell membranes and Table 1 for the direction and magnitude of the spectral shifts). […] Penetratin affinity to lipid bilayers and membrane fragments could be calculated using PWR by measuring the resonance minimum position shifts upon incremental addition of peptide to the cell sample [39]. […]
(§6) The kinetics of penetratin interaction with the membrane was determined by following the shift in the resonance minimum position as a function of time for a peptide concentration slightly above the Kd value. […] Rate constants were determined for the second part of the signal (the resonance angle increase) and varied upon membrane composition (Figure 2 and Table 3). […]
(§7) The sensitivity factor (Sf), a measure of the sensitivity of the instrument for the s- pol relative to p-pol ( [drawing 2] ), necessary to determine the mass and anisotropy axes has been determined, for the prism used in those experiments, to be 1.35 [46].

[5] = tested on: SA^neg cell membrane fragments; experiment: as above; type: binding, Chinese Hamster; conditions: SA^neg membrane fragments in egg PC planar bilayer; PWR shifts on incremental peptide addition, hyperbolic fit, apparent Kd; repeated 3 times
Description: as §4, §5, §6, §7

[6] = tested on: WT cell membrane fragments; experiment: as above; type: binding, Chinese Hamster; conditions: WT membrane fragments in egg PC planar bilayer; PWR shifts on incremental peptide addition, hyperbolic fit, apparent Kd; repeated 3 times
Description: as §4, §5, §6, §7

[7] = PWR, synthetic lipid model membrane; type: binding; conditions: hyperbolic fit, apparent Kd, repeated 3 times
Description: To get some insight into the role of the lipid component in the cell surface regarding penetratin interaction, lipid model systems composed of varied lipid composition were used. Both zwitterionic (egg PC), anionic (egg PG -phosphatidylglycerol-and egg PC/DOPG -phosphatidylglycerol/dioleoylphosphatidylglycerol-) and lipids with propensity to form negative membrane curvature (egg PC/DOPE -dioleoylphosphatidylethanolamine-) were chosen in order to understand the role of electrostatic interactions and membrane curvature in the interaction of penetratin with the lipid bilayer. For all the lipid systems, penetratin interaction led to spectral shifts in both the p- and s-polarisation. As in the case of cell membrane fragments studies, presented above, two distinct responses were observed depending on the membrane composition: 1) in the case of egg PC and egg PC/DOPE, a two phase binding process with negative shifts followed by positive shifts (for both polarizations) which equilibrated after certain concentrations were observed; 2) in the case of egg PG, egg PC/POPG (1-palmitoyl-2-oleoyl-sn-glycero-3-phospho-(1′-rac-glycerol)), penetratin led to a single binding process with positive shifts for both polarizations (see Table 1 for the direction and magnitude of the spectral shifts). […] The electrostatic interaction played an important role in penetratin interaction with the membrane, but was not the only relevant factor, the shape of the lipid headgroup and/or the lipid curvature seemed to also play a key role in (this will be further discussed below).
For the membrane interaction where two binding processes were observed, as in the case of egg PC, egg PC/DOPE, the first binding was associated with negative spectral shifts for both p- and s-polarizations, which corresponded mainly to mass changes (90–100%). […] In the case where only one binding event was observed (egg PG and egg PC/DOPG) mass changes again dominated the spectral changes (85 to 91%) (Table 5).
Here, the graphical analysis method was employed.
as §7

[8] = 1 µM extracellular biotin-Gly4-tagged penetratin, one million cells, 1 h incubation, washings, trypsin degradation of membrane-bound peptide, MALDI-TOF MS with deuterated internal standard, repeated at least three times
[9] = 1 µM extracellular, 1 h, from internalized amount provided a cell volume of 1 pL

In the case of “H-RQIKIWFQNRRMKWKK-NH2 [penetratin, Penetratin, positively charged cell-penetrating peptide derived from the third helix of the homeodomain of Antennapedia]”, the internalized peptide quantity [1, 8] is reported as “about 0.25 pmole”, the intracellular penetratin concentration [1, 9] is reported as “about 0.25 µM” and the internalized peptide quantity [2, 8] is reported as “about 0.25 pmole”. The intracellular penetratin concentration [2, 9] was “about 0.25 µM”, the internalized peptide quantity [3, 8] was “about 0.25 pmole” and the intracellular penetratin concentration [3, 9] was “about 0.25 µM”. For the same substance, the Kd [4] was 2000 ± 600 nM, the Kd [5] was 300 ± 40 nM and the Kd [6] was 10 ± 3 nM. It also gave a Kd ([7]; Egg PC bilayer) of 28000 ± 2000 nM, a Kd ([7]; Egg PC/DOPE bilayer) of 500 ± 10 nM and a Kd ([7]; Egg PC/DOPG bilayer) of 1400 ± 30 nM. It also gave a Kd ([7]; Egg PG bilayer) of 300 ± 20 nM.
